This passage reports IC50 results from BindingDB's records for doi:10.1021/jm101621u (University of Utah, 2011).

pIC50: −log10 of the molar value. Square brackets hold non-standard residues; d marks the D form. Peptide text beside a SMILES is read from it. d(aThr) = C[C@@H](O)[C@@H](N)C(=O)O; Dhb = C/C=C(\N)C(=O)O

For this assay, the target named is Transient receptor potential cation channel subfamily V member 1 (Homo sapiens, UniProt Q8NER1). The experiment in a line: Antagonist activity at human TRPV1 expressed in HEK293 cell assessed as inhibition of capsaicin-induced calcium flux by fluorometric analysis. A general note: Calcium flux is commonly read through the fluorescence of an indicator in the cells.
Transient receptor potential cation channel subfamily V member 1, sequence (Q8NER1 whole entry): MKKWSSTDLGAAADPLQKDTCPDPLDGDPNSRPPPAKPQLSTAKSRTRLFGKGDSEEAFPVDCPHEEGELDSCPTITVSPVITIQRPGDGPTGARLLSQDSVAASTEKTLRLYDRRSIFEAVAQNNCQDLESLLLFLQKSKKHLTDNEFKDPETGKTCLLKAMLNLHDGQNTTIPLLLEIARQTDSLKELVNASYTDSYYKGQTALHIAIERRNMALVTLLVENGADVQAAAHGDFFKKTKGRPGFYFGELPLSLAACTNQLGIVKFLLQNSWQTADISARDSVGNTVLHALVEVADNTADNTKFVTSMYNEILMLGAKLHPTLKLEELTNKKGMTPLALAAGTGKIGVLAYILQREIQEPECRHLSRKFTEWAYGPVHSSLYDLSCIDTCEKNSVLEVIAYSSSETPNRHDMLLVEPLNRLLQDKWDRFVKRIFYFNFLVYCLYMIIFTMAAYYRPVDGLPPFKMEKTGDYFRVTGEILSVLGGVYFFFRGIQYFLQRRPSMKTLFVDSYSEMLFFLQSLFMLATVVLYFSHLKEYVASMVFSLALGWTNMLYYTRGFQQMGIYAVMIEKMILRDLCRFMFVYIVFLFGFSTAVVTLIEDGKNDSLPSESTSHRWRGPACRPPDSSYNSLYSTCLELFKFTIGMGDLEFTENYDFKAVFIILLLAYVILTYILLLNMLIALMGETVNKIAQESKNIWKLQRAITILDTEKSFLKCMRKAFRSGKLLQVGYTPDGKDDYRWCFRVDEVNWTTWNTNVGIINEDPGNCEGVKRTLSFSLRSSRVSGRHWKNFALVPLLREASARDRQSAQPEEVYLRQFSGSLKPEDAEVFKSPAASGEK

Broadly, the pIC50 is the negative decadic logarithm of the IC50, by convention in mol/L. For `C/C=C(\NC(=O)[C@H](C)NC(=O)[C@@H](NC(=O)[C@H](NC(=O)[C@H](Cc1ccccc1)NC(=O)[C@@H](CC(C)C)NC(=O)[C@@H](Cc1ccccc1)NC(C)=O)[C@@H](C)O)C(C)C)C(=O)O` [Nobilamide A] (Ac-[dF][dL]F[d(aThr)]VA[Dhb]-OH), the pIC50 is 2.78.
